Test results: patent US9169241B2, “Quinolinyloxyphenylsulfonamides” (Max-Planck-Gesellschaft Zur Forderung der Wissenschaften …, priority 2009, dated 2015)
Where two headings read alike, the source gives them in different places.

Experiments:
Format in all cases: cell-based
C8161 = assay: Apoptosis assay (Cellomics, nucleus condensation); conditions: Homo sapiens, Table III, read-out: Apoptosis induction in C8161
Method in brief: (§1)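 5000 cells/well, Hoechst 33342 live stain; cpd 12.5, 6.25, 3.125, 1.56, 0.78, 0.39 μM or DMSO; imaged 24 h + 48 h; nuclear condensation = intensity variation per nucleus; cell number loss noted.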

Hs578T = assay: Apoptosis assay (Cellomics, nucleus condensation); conditions: Homo sapiens, Hs-578T, Table III, read-out: Apoptosis induction in Hs578T
Method in brief: as §1

SF126 [1] = assay: Apoptosis assay (Cellomics, nucleus condensation); conditions: Homo sapiens, SF-126, Table III, read-out: Apoptosis induction in SF126
Method in brief: as §1

SF763 = assay: Apoptosis assay (Cellomics, nucleus condensation); conditions: Table III, read-out: Apoptosis induction in SF763
Method in brief: as §1

U118 [2] = assay: Apoptosis assay (Cellomics, nucleus condensation); conditions: Table III, read-out: Apoptosis induction in U118
Method in brief: as §1

U138 = assay: Apoptosis assay (Cellomics, nucleus condensation); conditions: Table III, read-out: Apoptosis induction in U138
Method in brief: as §1

A172 = assay: Matrigel outgrowth assay/branching assay; conditions: Homo sapiens, A 172, Table Vb, read-out: Total branching inhibition in Matrigel A172
Method in brief: (§2)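 Cells (5000/well) were seeded onto polymerized 3 mg/ml Matrigel with compound at 3.125, 1.56 or 0.78 μM versus DMSO. Branching was imaged by inverted microscopy (5× objective) at 48, 72 and 96 h. Only concentrations giving total branching inhibition scored positive.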

SF126 [3] = assay: Matrigel outgrowth assay/branching assay; conditions: Homo sapiens, SF-126, Table Vb, read-out: Total branching inhibition in Matrigel SF126
Method in brief: as §2

U118 [4] = assay: Matrigel outgrowth assay/branching assay; conditions: Table Vb, read-out: Total branching inhibition in Matrigel U118
Method in brief: as §2

viable cells in culture = assay: Cell viability assay at 10 μM (CellTiter-Glo, Table VII); conditions: compound 10 μM, 72 h;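 note: graded A 0-20%; B 21-40%; C 41-60%; D over 60% viable cells relative to DMSO control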
Method in brief: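 Cells were seeded at 1000 cells/well in 96-well plates in 100 μl culture medium and incubated for 72 h with 10 μM compound or a DMSO control. ATP content, which reflects metabolically active and therefore viable cells, was then determined by CellTiter-Glo luminescence (Promega) per the manufacturer's instructions and expressed relative to the DMSO control.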

[5] = Homo sapiens, HCT-116, HCT116 def, read-out: percentage (%) of viable cells HCT 116def
[6] = Homo sapiens, HCT-116, HCT116 wt, read-out: percentage (%) of viable cells HCT 116wt
[7] = Homo sapiens, HT-29, HT29, read-out: percentage (%) of viable cells HT29
[8] = Homo sapiens, NCI-H358, H358, read-out: percentage (%) of viable cells H358
[9] = Homo sapiens, NCI-H1650, H1650, read-out: percentage (%) of viable cells H1650
[10] = Homo sapiens, NCI-H1666, H1666, read-out: percentage (%) of viable cells H1666
[11] = Homo sapiens, NCI-H1975, H1975, read-out: percentage (%) of viable cells H1975
[12] = Homo sapiens, NCI-H1993, H1993, read-out: percentage (%) of viable cells H1993
[13] = Homo sapiens, A549, read-out: percentage (%) of viable cells A549
[14] = Homo sapiens, HCC827, read-out: percentage (%) of viable cells HCC827
[15] = Homo sapiens, SW480, read-out: percentage (%) of viable cells SW480
[16] = RKO, read-out: percentage (%) of viable cells RKO

Row | IC50 (C8161) | IC50 (Hs578T) | IC50 (SF126 [1]) | IC50 (SF763) | IC50 (U118 [2]) | IC50 (U138) | Structure (SMILES) | IC100 (A172) | IC100 (SF126 [3]) | IC100 (U118 [4]) | viability at 10 µM (viable cells in culture; [5]) | viability at 10 µM (viable cells in culture; [6]) | viability at 10 µM (viable cells in culture; [7]) | viability at 10 µM (viable cells in culture; [8]) | viability at 10 µM (viable cells in culture; [9]) | viability at 10 µM (viable cells in culture; [10]) | viability at 10 µM (viable cells in culture; [11]) | viability at 10 µM (viable cells in culture; [12]) | viability at 10 µM (viable cells in culture; [13]) | viability at 10 µM (viable cells in culture; [14]) | viability at 10 µM (viable cells in culture; [15]) | further results
1 | ≤ 12.5 µM | ≤ 12.5 µM | 12.5 to 50 µM | 12.5 to 50 µM | ≤ 12.5 µM | ≤ 12.5 µM | COc1cc2c(Oc3ccc(NS(=O)(=O)c4cccc(Oc5ccccc5)c4)cc3F)ccnc2cc1OCCCN1CCCCC1 [Example 10, N-{3-Fluoro-4-[6-methoxy-7-(3-piperidin-1-yl-propoxy)-quinolin-4-yloxy]-phenyl}-3-phenoxy-benzenesulfonamide] | ≤ 12.5 µM | ≤ 12.5 µM | ≤ 12.5 µM | 0 to 20% | 0 to 20% | 21 to 40% | 0 to 20% | 21 to 40% | 21 to 40% | 21 to 40% | 0 to 20% | 21 to 40% | 0 to 20% | 0 to 20% | viability at 10 µM (viable cells in culture; [16]): 0 to 20%
2 | ≤ 12.5 µM | ≤ 12.5 µM | ≤ 12.5 µM | ≤ 12.5 µM | ≤ 12.5 µM | 12.5 to 50 µM | COc1cc2c(Oc3ccc(NS(=O)(=O)c4ccccc4C(F)(F)F)cc3Cl)ccnc2cc1OCCCN1CCN(C)CC1 [Example 87, N-(3-Chloro-4-{6-methoxy-7-[3-(4-methyl-piperazin-1-yl)-propoxy]-quinolin-4-yloxy}-phenyl)-2-trifluoromethyl-benzenesulfonamide] | ≤ 12.5 µM | ≤ 12.5 µM | ≤ 12.5 µM | 0 to 20% | 41 to 60% | 0 to 20% | 0 to 20% | 21 to 40% | 41 to 60% | 0 to 20% | 41 to 60% | > 60% | 41 to 60% | 0 to 20% | viability at 10 µM (viable cells in culture; [16]): 41 to 60%
3 | 12.5 to 50 µM | ≤ 12.5 µM | 12.5 to 50 µM | ≤ 12.5 µM | ≤ 12.5 µM | ≤ 12.5 µM | COc1cc2c(Oc3ccc(NS(=O)(=O)c4ccc(F)cc4F)cc3F)ccnc2cc1OCCCN1CCCC(C)C1 (stereo not drawn) [Example 47, 2,4-Difluoro-N-(3-fluoro-4-{6-methoxy-7-[3-(3-methyl-piperidin-1-yl)-propoxy]-quinolin-4-yloxy}-phenyl)-benzenesulfonamide] | > 12.5 µM | ≤ 12.5 µM | ≤ 12.5 µM | 21 to 40% | 0 to 20% | 41 to 60% | 0 to 20% | 41 to 60% | 21 to 40% | 0 to 20% | 0 to 20% | 41 to 60% | 41 to 60% | 21 to 40% | viability at 10 µM (viable cells in culture; [16]): 0 to 20%

Row | Structure (SMILES) | IC50 (C8161) | IC50 (Hs578T) | IC50 (SF126 [1]) | IC50 (SF763) | IC50 (U118 [2]) | IC50 (U138) | IC100 (A172) | IC100 (SF126 [3]) | IC100 (U118 [4]) | viability at 10 µM (viable cells in culture; [5]) | viability at 10 µM (viable cells in culture; [6]) | viability at 10 µM (viable cells in culture; [7]) | viability at 10 µM (viable cells in culture; [8]) | viability at 10 µM (viable cells in culture; [9]) | viability at 10 µM (viable cells in culture; [10]) | viability at 10 µM (viable cells in culture; [11]) | viability at 10 µM (viable cells in culture; [12]) | viability at 10 µM (viable cells in culture; [13]) | viability at 10 µM (viable cells in culture; [14]) | viability at 10 µM (viable cells in culture; [15]) | further results
4 | COc1cc2c(Oc3ccc(NS(=O)(=O)c4ccccc4C(F)(F)F)cc3F)ccnc2cc1OCCCN1CCCCC1C (stereo not drawn) [Example 99, N-(3-Fluoro-4-{6-methoxy-7-[3-(2-methyl-piperidin-1-yl)-propoxy]-quinolin-4-yloxy}-phenyl)-2-trifluoromethyl-benzenesulfonamide] | ≤ 12.5 µM | ≤ 12.5 µM | ≤ 12.5 µM | ≤ 12.5 µM | 12.5 to 50 µM | ≤ 12.5 µM | > 12.5 µM | ≤ 12.5 µM | ≤ 12.5 µM | > 60% | 0 to 20% | 21 to 40% | 0 to 20% | 21 to 40% | 41 to 60% | 21 to 40% | 21 to 40% | 21 to 40% | 41 to 60% | 0 to 20% | viability at 10 µM (viable cells in culture; [16]): 21 to 40%
